Source: patent US10570129B2 (Zoetis Services LLC, priority 2015, dated 2020)

What was measured:
D. immitis microfilariae = test: Dirofilaria immitis, microfilariae (DiMF) in vitro motility assay; type: cell-based; settings: for minimal effective concentration: Dirofilaria immitis, 72 h, read-out: DiMF minimally effective dose (MEC)
Haemonchus contortus L3 = test: microbe, parasite or virus in culture; type: cell-based; settings: for minimal effective concentration: Haemonchus contortus, 96 h, read-out: HcL3 Minimal Effective Concentration (MEC)

Molecule	minimal effective concentration (D. immitis microfilariae) [µM]	minimal effective concentration (Haemonchus contortus L3) [µM]	DiMF minimally effective dose (MEC) (D. immitis microfilariae; decrease in microfilariae motility by subjective visual assessment, observed at 72 hours) [µM]	HcL3 Minimal Effective Concentration (MEC) (Haemonchus contortus L3) [µM]
N#Cc1ccc2c3c(n(C(=O)NCc4ccnc(Cl)c4)c2c1)CCN(C/C=C/c1c(F)c(F)c(Cl)c(F)c1F)C3 [Example 17, (E)-2-(3-(4-chloro-2,3,5,6-tetrafluorophenyl)allyl)-N-((2-chloropyridin-4-yl)methyl)-7-cyano-1,2,3,4-tetrahydro-5H-pyrido[4,3-b]indole-5-carboxamide]	> 100	1	–	–
O=C(NCc1ccnc(F)c1)n1c2c(c3cc(F)c(OC(F)(F)F)cc31)CN(C/C=C/c1ccc(Cl)cc1)CC2 [Example 472, (E)-2-(3-(4-chlorophenyl)allyl)-8-fluoro-N-((2-fluoropyridin-4-yl)methyl)-7-(trifluoromethoxy)-1,2,3,4-tetrahydro-5H-pyrido[4,3-b]indole-5-carboxamide]	10	1	–	–
COc1ccc(/C=C/CN2CCc3c(c4ccc(OC(F)(F)F)cc4n3C(=O)NCc3ccnc(Cl)c3)C2)cc1 [Example 358, (E)-N-((2-chloropyridin-4-yl)methyl)-2-(3-(4-methoxyphenyl)allyl)-7-(trifluoromethoxy)-1,2,3,4-tetrahydro-5H-pyrido[4,3-b]indole-5-carboxamide]	7.6	1.3	–	–
N#Cc1ccc2c(c1)c1c(n2C(=O)NCc2ccnc(Cl)c2)CCN(C/C=C/c2ccc(F)c(F)c2F)C1 [Example 80, (E)-N-((2-chloropyridin-4-yl)methyl)-8-cyano-2-(3-(2,3,4-trifluorophenyl)allyl)-1,2,3,4-tetrahydro-5H-pyrido[4,3-b]indole-5-carboxamide]	> 100	0.06	–	–
N#Cc1cc2c(cc1F)c1c(n2C(=O)NCc2ccnc(F)c2)CCN(C/C=C/c2ccc(Cl)cc2)C1 [Example 174, (E)-2-(3-(4-chlorophenyl)allyl)-7-cyano-8-fluoro-N-((2-fluoropyridin-4-yl)methyl)-1,2,3,4-tetrahydro-5H-pyrido[4,3-b]indole-5-carboxamide]	> 100	57.4	–	–
O=C(NCc1ccnc(F)c1)n1c2c(c3c(F)cc(C(F)(F)F)cc31)CN(C/C=C/c1ccc(Cl)cc1)CC2 [Example 327, (E)-2-(3-(4-chlorophenyl)allyl)-9-fluoro-N-((2-fluoropyridin-4-yl)methyl)-7-(trifluoromethyl)-1,2,3,4-tetrahydro-5H-pyrido[4,3-b]indole-5-carboxamide]	10	> 100	–	–
O=C(NCc1ccnc(F)c1)n1c2c(c3cc(Cl)c(Cl)cc31)CN(C/C=C/c1ccc(Cl)cc1)CC2 [Example 292, (E)-7,8-dichloro-2-(3-(4-chlorophenyl)allyl)-N-((2-fluoropyridin-4-yl)methyl)-1,2,3,4-tetrahydro-5H-pyrido[4,3-b]indole-5-carboxamide]	5.7	3.3	–	–
O=C(NCc1ccnc(F)c1)n1c2c(c3cc(OC(F)(F)F)ccc31)CN(C/C=C/c1ccc(Cl)c(F)c1)CC2 [Example 401, (E)-2-(3-(4-chloro-3-fluorophenyl)allyl)-N-((2-fluoropyridin-4-yl)methyl)-8-(trifluoromethoxy)-1,2,3,4-tetrahydro-5H-pyrido[4,3-b]indole-5-carboxamide]	18.2	0.5	–	–
O=C(NCc1ccnc(Cl)c1)n1c2c(c3cc4c(cc31)COC4)CN(C/C=C/c1ccc(C(F)(F)F)cc1)CC2 [Example 482, (E)-N-((2-chloropyridin-4-yl)methyl)-8-(3-(4-(trifluoromethyl)phenyl)allyl)-1,3,6,7,8,9-hexahydro-5H-furo[3,4-f]pyrido[4,3-b]indole-5-carboxamide]	3.3	1.8	–	–
N#Cc1ccc(/C=C/CN2CCc3c(c4ccc(Br)cc4n3C(=O)NCc3ccnc(Cl)c3)C2)cc1 [Example 441, (E)-7-bromo-N-((2-chloropyridin-4-yl)methyl)-2-(3-(4-cyanophenyl)allyl)-1,2,3,4-tetrahydro-5H-pyrido[4,3-b]indole-5-carboxamide]	4.4	> 100	–	–
N#Cc1cc2c3c(n(C(=O)NCc4ccnc(Cl)c4)c2cc1Cl)CCN(C/C=C/c1ccc(Cl)cc1)C3 [Example 177, (E)-7-chloro-2-(3-(4-chlorophenyl)allyl)-N-((2-chloropyridin-4-yl)methyl)-8-cyano-1,2,3,4-tetrahydro-5H-pyrido[4,3-b]indole-5-carboxamide]	5.7	0.3	–	–
N#Cc1cccc2c1c1c(n2C(=O)NCc2ccnc(Cl)c2)CCN(C/C=C/c2ccc(Cl)cc2Cl)C1 [Example 4, (E)-N-((2-chloropyridin-4-yl)methyl)-9-cyano-2-(3-(2,4-dichlorophenyl)allyl)-1,2,3,4-tetrahydro-5H-pyrido[4,3-b]indole-5-carboxamide]	10	> 100	–	–
O=C(NCc1ccnc(F)c1)n1c2c(c3cc(-c4cccc(Cl)c4)ccc31)CN(C/C=C/c1ccc(Cl)cc1)CC2 [Example 462, (E)-8-(3-chlorophenyl)-2-(3-(4-chlorophenyl)allyl)-N-((2-fluoropyridin-4-yl)methyl)-1,2,3,4-tetrahydro-5H-pyrido[4,3-b]indole-5-carboxamide]	> 100	> 100	–	–
O=C(NCc1ccnc(Cl)c1)n1c2c(c3cccc(Cl)c31)CN(C/C=C/c1ccc(Cl)cc1)CC2 [Example 267, (E)-6-chloro-2-(3-(4-chlorophenyl)allyl)-N-((2-chloropyridin-4-yl)methyl)-1,2,3,4-tetrahydro-5H-pyrido[4,3-b]indole-5-carboxamide]	10	> 100	–	–
N#Cc1ccc2c(c1)c1c(n2C(=O)NCc2ccnc(F)c2)CCN(C/C=C/c2cccc(Cl)c2F)C1 [Example 118, (E)-2-(3-(3-chloro-2-fluorophenyl)allyl)-8-cyano-N-((2-fluoropyridin-4-yl)methyl)-1,2,3,4-tetrahydro-5H-pyrido[4,3-b]indole-5-carboxamide]	5.7	1.8	–	–
N#Cc1ccc2c(c1)c1c(n2C(=O)NCc2ccnc(F)c2)CCN(C/C=C/c2ccncc2)C1 [Example 124, (E)-8-cyano-N-((2-fluoropyridin-4-yl)methyl)-2-(3-(pyridin-4-yl)allyl)-1,2,3,4-tetrahydro-5H-pyrido[4,3-b]indole-5-carboxamide]	33	100	–	–
N#Cc1ccc(/C=C/CN2CCc3c(c4cc(C#N)ccc4n3C(=O)NCc3ccnc(F)c3)C2)cc1 [Example 120, (E)-8-cyano-2-(3-(4-cyanophenyl)allyl)-N-((2-fluoropyridin-4-yl)methyl)-1,2,3,4-tetrahydro-5H-pyrido[4,3-b]indole-5-carboxamide]	> 100	0.5	–	–
COc1cc2c(cc1Br)c1c(n2C(=O)NCc2ccnc(Cl)c2)CCN(C/C=C/c2ccc(Cl)cc2)C1 [Example 195, (E)-8-bromo-2-(3-(4-chlorophenyl)allyl)-N-((2-chloropyridin-4-yl)methyl)-7-methoxy-1,2,3,4-tetrahydro-5H-pyrido[4,3-b]indole-5-carboxamide]	5.7	0.5	–	–
O=C(NCc1ccnc(Cl)c1)n1c2c(c3cc(Cl)ccc31)CN(C/C=C/c1ccc(F)cc1Cl)CC2 [Example 237, (E)-8-chloro-2-(3-(2-chloro-4-fluorophenyl)allyl)-N-((2-chloropyridin-4-yl)methyl)-1,2,3,4-tetrahydro-5H-pyrido[4,3-b]indole-5-carboxamide]	1.8	0.03	–	–
(E)-7,8-dichloro-N-((2-fluoropyridin-4-yl)methyl)-2-(3-(5-(trifluoromethyl)pyridin-2-yl)allyl)-1,2,3,4-tetrahydro-5H-pyrido[4,3-b]indole-5-carboxamide [Example 287]	–	–	3.3	0.2
O=C(NCc1ccnc(F)c1)n1c2c(c3cc(F)c(Cl)cc31)CN(C/C=C/c1ccc(F)c(Cl)c1)CC2 [Example 313, (E)-7-chloro-2-(3-(3-chloro-4-fluorophenyl)allyl)-8-fluoro-N-((2-fluoro-pyridin-4-yl)methyl)-1,2,3,4-tetrahydro-5H-pyrido[4,3-b]indole-5-carboxamide]	3.3	0.5	–	–
CCOc1ccc2c(c1)c1c(n2C(=O)NCc2ccnc(Cl)c2)CCN(C/C=C/c2ccc(Cl)cc2)C1 [Example 513, (E)-2-(3-(4-chlorophenyl)allyl)-N-((2-chloropyridin-4-yl)methyl)-8-ethoxy-1,2,3,4-tetrahydro-5H-pyrido[4,3-b]indole-5-carboxamide]	3.3	7.6	–	–
N#Cc1ccc(/C=C/CN2CCc3c(c4ccc(OC(F)(F)F)cc4n3C(=O)NCc3ccnc(Cl)c3)C2)cc1 [Example 351, (E)-N-((2-chloropyridin-4-yl)methyl)-2-(3-(4-cyanophenyl)allyl)-7-(trifluoromethoxy)-1,2,3,4-tetrahydro-5H-pyrido[4,3-b]indole-5-carboxamide]	32.3	0.7	–	–
O=C(NCc1ccnc(Cl)c1)n1c2c(c3c(Cl)cccc31)CN(C/C=C/c1ccc(C(F)(F)F)cn1)CC2 [Example 207, (E)-9-chloro-N-((2-chloropyridin-4-yl)methyl)-2-(3-(5-(trifluoromethyl)-pyridin-2-yl)allyl)-1,2,3,4-tetrahydro-5H-pyrido[4,3-b]indole-5-carboxamide]	10	0.3	–	–
O=C(NCc1ccnc(Cl)c1)n1c2c(c3c(Cl)cccc31)CN(C/C=C/c1ccc(F)cc1)CC2 [Example 218, (E)-9-chloro-N-((2-chloropyridin-4-yl)methyl)-2-(3-(4-fluorophenyl)allyl)-1,2,3,4-tetrahydro-5H-pyrido[4,3-b]indole-5-carboxamide]	10	1	–	–
